Details: Liquid, Frequency=8 MHz, Pulse-echo method

C1CCCC1 [cyclopentane]
Details	speed of sound [m/s]
258.15 K, 100 kPa	1419.1
258.15 K, 5072 kPa	1446.1
258.15 K, 10244 kPa	1473
258.15 K, 15262 kPa	1498.1
258.15 K, 20158 kPa	1521.7
258.15 K, 25083 kPa	1544.5
258.15 K, 30141 kPa	1567.1
273.15 K, 100 kPa	1336.6
273.15 K, 5169 kPa	1366.7
273.15 K, 10059 kPa	1394.3
273.15 K, 15219 kPa	1422
273.15 K, 20251 kPa	1447.9
273.15 K, 25184 kPa	1472.3
273.15 K, 30227 kPa	1496.3
293.15 K, 105 kPa	1230.1
293.15 K, 5059 kPa	1263
293.15 K, 10088 kPa	1294.4
293.15 K, 15198 kPa	1324.6
293.15 K, 20121 kPa	1352.3
293.15 K, 25192 kPa	1379.6
293.15 K, 30134 kPa	1405
313.15 K, 107 kPa	1126.8
313.15 K, 5113 kPa	1164
313.15 K, 10058 kPa	1198.3
313.15 K, 15132 kPa	1231.3
313.15 K, 20097 kPa	1261.8
313.15 K, 25098 kPa	1291
313.15 K, 30162 kPa	1319.2
333.15 K, 149 kPa	1026.6
333.15 K, 5035 kPa	1067.6
333.15 K, 10139 kPa	1107
333.15 K, 15108 kPa	1142.5
333.15 K, 20130 kPa	1176.2
333.15 K, 25152 kPa	1208
333.15 K, 30170 kPa	1238
353.15 K, 261 kPa	929.4
353.15 K, 5019 kPa	974.63
353.15 K, 10069 kPa	1018.2
353.15 K, 15107 kPa	1058.1
353.15 K, 20063 kPa	1094.4
353.15 K, 25009 kPa	1128.3
353.15 K, 30157 kPa	1161.5

Source: the NIST ThermoML archive (doi:10.1021/je5010164)
